Test results from patent EP1219638A2, “G-protein coupled receptors having homology to the P2Y purinoreceptor 1 (P2Y1)” (Pfizer Limited, priority 2000, dated 2002).

Test system: PFI-019, SEQ ID NO: 2
Experiment: FLIPR functional cell-based assay for agonist activation (Fluo3 fluorescence), transiently transfected 293 cells expressing mouse Gα15
Parameters: species or system human
Details: PFI-019-transfected 293 cells (HEK 293 expressing mouse Gα15); fluorescence intensity versus time; concentration not given; Figures 3-6
Method: Fluorescence Imaging Plate Reader (FLIPR®) technology was employed as a means to detect activation of PFI-019 by agonists in a cell-based assay.
5 x 10^6 Human Embryonic Kidney (HEK) 293 cells expressing the mouse Gα15 gene (from here on called '293 cells'), were transiently transfected with 7.5 µg of PFI-019 (contained within the pcDNA4HIS-max-TOPO (Invitrogen) plasmid) vector, or vector alone, using Lipofectamine Plus® reagent (Gibco BRL) as per the manufacturer's protocol. The plasmid pcDNA4HIS-max-TOPO was used as it contains elements that up-regulate the level of gene transcription over standard pcDNA3.1 vectors. 24 hrs post-transfection, the cells were detached from the flask using Trypsin/EDTA solution (LTI) and seeded into a black sided, Poly-D-lysine-treated, 96-well plate (Becton Dickinson) at 5 x 10^4 cells/well density. The plates were left overnight to allow the cells to adhere to the bottom of the wells. The medium was removed from the cells and replaced with 100 µl warm (37°C) dye loading solution (50 µg Fluo3 (Molecular Probes) in 20 µl DMSO + 20% pluronic acid in DMSO, added to 11 ml Dulbecco's Modified Eagles Medium containing 1x Probenecid (100x Probenecid - 0.71 g Probenecid was dissolved in 5 ml 1M NaOH and 5 ml Dulbeccos' Phosphate Buffered Saline (PBS), per plate; Probenecid (Molecular Probes) inhibits activity of the anion transport protein, thus improving dye loading). The plates were then incubated for 1 hr at 37°C. Plates were subsequently washed with 250 µl of wash buffer per well (5 ml 100x Probenecid stock + 495 ml PBS, pH 7.4) 4 times. The plates were returned to the 37°C/5%CO2 incubator for 30 mins prior to processing within the FLIPR® instrument. The FLIPR® processing involved reading the fluorescence for all samples for 2 minutes; during this time the fluorescence baseline was determined for the first 10 seconds. The desired amount of compound was then automatically transferred to the wells, and the fluorescence was continuously monitored for the remainder of the time. All compounds were diluted in wash buffer
Using methodology as described in detail above, purinoceptor agonist compounds were identified as being able to functionally activate PFI-019.
Figures 3, 4, 5 and 6 show the response of PFI-019-transfected 293 cells to 2-chloroadenosine triphosphate tetrasodium (2-chloro-ATP; Fig. 3), 2-Methylthioadenosine triphosphate tetrasodium (2-methyl-thio-ATP; Fig. 4;); 2-Methylthioadenosine diphosphate trisodium (2-methyl-thio-ADP, Fig. 5) and Uridine triphosphate (Fig. 6). […] All compounds were purchased from Sigma.

Structure (SMILES)	stimulation of PFI-019
Nc1nc(Cl)nc2c1ncn2[C@@H]1O[C@H](COP(=O)([O-])OP(=O)([O-])OP(=O)([O-])[O-])[C@@H](O)[C@H]1O.[Na+].[Na+].[Na+].[Na+] [2-chloro-ATP, 2-chloroadenosine triphosphate tetrasodium]	stimulation
CSc1nc(N)c2ncn([C@@H]3O[C@H](COP(=O)(O)OP(=O)(O)O)[C@@H](O)[C@H]3O)c2n1 [2-methyl-thio-ADP, 2-Methylthioadenosine diphosphate trisodium]	stimulation
CSc1nc(N)c2ncn([C@@H]3O[C@H](COP(=O)(O)OP(=O)(O)OP(=O)(O)O)[C@@H](O)[C@H]3O)c2n1 [2-methyl-thio-ATP, 2-Methylthioadenosine triphosphate tetrasodium]	stimulation
O=c1ccn([C@@H]2O[C@H](COP(=O)(O)OP(=O)(O)OP(=O)(O)O)[C@@H](O)[C@H]2O)c(=O)[nH]1 [UTP, Uridine triphosphate]	stimulation
